# Test results as given in US20240182465A1 (GENFLEET THERAPEUTICS (SHANGHAI) INC., priority 2021, published 2024).
# Where a name gives a salt, the structure may show the parent alone.
# Columns and labels:
# HPK1 [1] = biological target: T1, HPK1 (Homo sapiens, UniProt Q92918); assay: HPK1 kinase activity assay (ADP-Glo); conditions: HPK1 Kinase activity IC50 (nM), 1 nM HPK1, 10 μM ATP, 0.1 μg/μL MBP
# T1 sequence (Q92918 1-346 limits assumed): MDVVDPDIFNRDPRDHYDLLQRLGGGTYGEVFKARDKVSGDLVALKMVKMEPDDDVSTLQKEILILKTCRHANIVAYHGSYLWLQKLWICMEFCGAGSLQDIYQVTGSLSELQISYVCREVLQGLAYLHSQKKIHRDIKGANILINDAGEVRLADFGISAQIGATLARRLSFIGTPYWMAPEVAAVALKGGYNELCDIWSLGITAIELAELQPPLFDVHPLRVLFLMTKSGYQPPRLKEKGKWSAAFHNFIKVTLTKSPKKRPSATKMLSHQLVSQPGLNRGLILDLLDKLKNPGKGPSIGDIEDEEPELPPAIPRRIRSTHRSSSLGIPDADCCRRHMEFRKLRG
# HPK1 [2] = biological target: HPK1 (Homo sapiens, UniProt Q92918); assay: SLP76 phosphorylation assay (intracellular HPK1 inhibitory activity, p-SLP76 Ser376 sandwich ELISA); conditions: p-SLP76 IC50(nM), Jurkat, Clone E6-1 cells; 1 h compound pre-incubation, anti-CD3 beads stimulation 20 min; SLP76 phosphorylation at S376
# Target sequence in this assay (Q92918 whole entry): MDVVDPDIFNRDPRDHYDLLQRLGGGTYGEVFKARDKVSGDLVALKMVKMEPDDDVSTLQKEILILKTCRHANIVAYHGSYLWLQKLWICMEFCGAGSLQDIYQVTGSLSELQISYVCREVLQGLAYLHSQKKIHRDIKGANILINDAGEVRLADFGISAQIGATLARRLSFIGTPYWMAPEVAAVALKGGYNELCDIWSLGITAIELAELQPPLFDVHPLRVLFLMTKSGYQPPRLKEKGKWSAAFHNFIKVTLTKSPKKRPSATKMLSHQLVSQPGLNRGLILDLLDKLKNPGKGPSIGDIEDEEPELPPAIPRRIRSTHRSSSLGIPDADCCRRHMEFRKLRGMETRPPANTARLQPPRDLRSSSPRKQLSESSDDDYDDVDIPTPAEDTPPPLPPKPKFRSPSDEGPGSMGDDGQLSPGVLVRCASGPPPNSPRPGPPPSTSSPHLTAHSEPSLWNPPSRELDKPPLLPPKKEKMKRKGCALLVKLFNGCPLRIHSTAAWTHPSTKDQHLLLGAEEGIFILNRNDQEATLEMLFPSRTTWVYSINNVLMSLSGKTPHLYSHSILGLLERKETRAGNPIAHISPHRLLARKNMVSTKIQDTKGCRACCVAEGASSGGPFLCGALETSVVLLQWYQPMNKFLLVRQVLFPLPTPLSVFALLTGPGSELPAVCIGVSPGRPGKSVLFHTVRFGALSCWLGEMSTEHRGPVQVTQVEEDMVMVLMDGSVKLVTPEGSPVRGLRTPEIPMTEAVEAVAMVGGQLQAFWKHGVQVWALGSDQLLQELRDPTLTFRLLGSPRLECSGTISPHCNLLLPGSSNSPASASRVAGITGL
SMILES,IC50 (HPK1 [1]),IC50 (HPK1 [2])
"Cc1c[nH]c2ncc(-c3cc4c(c([C@@H]5CCCN5)c3)CCN(C(=O)[C@](C)(O)C(F)(F)F)C4)cc12 [Compound Z285-1, (S)-3,3,3-trifluoro-2-hydroxy-2-methyl-1-(7-(3-methyl-1H-pyrrolo[2,3-b]pyridin-5-yl)-5-((S)-pyrrolidin-2-yl)-3,4-dihydroisoquinolin-2(1H)-yl)propan-1-one]",0.87 nM,239 nM
"Cc1c[nH]c2ncc(-c3cc4c(c([C@@H]5CCCN5)c3)CN(C(=O)OC3CC3)CC4)cc12 [Compound Z246, (S)-cyclopropyl 6-(3-methyl-1H-pyrrolo[2,3-b]pyridin-5-yl)-8-(pyrrolidin-2-yl)-3,4-dihydroisoquinoline-2(1H)-carboxylate]",0.48 nM,279 nM
"Cc1c[nH]c2ncc(-c3cc4c(c([C@@H]5CCCN5)c3)CN(C(=O)c3cnn(C)c3)CC4)cc12 [Compound Z224, (S)-(1-methyl-1H-pyrazol-4-yl)(6-(3-methyl-1H-pyrrolo[2,3-b]pyridin-5-yl)-8-(pyrrolidin-2-yl)-3,4-dihydroisoquinolin-2(1H)-yl)methanone]",1.11 nM,333 nM
"Cc1cc(C(=O)N2CCc3cc(-c4cnc5[nH]cc(C)c5c4)cc([C@@H]4CCCN4)c3C2)n(C)n1 [Compound Z355, (S)-(1,3-dimethyl-1H-pyrazol-5-yl)(6-(3-methyl-1H-pyrrolo[2,3-b]pyridin-5-yl)-8-(pyrrolidin-2-yl)-3,4-dihydroisoquinolin-2(1H)-yl)methanone]",0.45 nM,196 nM
"c1cncc(-c2c[nH]c3ncc(-c4cc5c(c([C@@H]6CCCN6)c4)COCC5)cc23)c1 [Compound Z199, (S)-3-(pyridin-3-yl)-5-(8-(pyrrolidin-2-yl)isochroman-6-yl)-1H-pyrrolo[2,3-b]pyridine]",0.32 nM,117 nM
"Cc1c[nH]c2ncc(-c3cc4c(c([C@@H]5COCCN5)c3)CN(C(=O)[C@@](C)(O)C(F)(F)F)CC4)cc12 [Compound Z317, (R)-3,3,3-trifluoro-2-hydroxy-2-methyl-1-[6-(3-methyl-1H-pyrrolo[2,3-b]pyridin-5-yl)-8-[(R)-morpholin-3-yl]-3,4-dihydroisoquinolin-2(1H)-yl]propan-1-one]",0.88 nM,200 nM
"Cc1cc(C(=O)N2CCc3cc(-c4cnc5[nH]cc(C)c5c4)cc([C@@H]4CCCN4)c3C2)ccn1 [Compound Z213, (S)-(6-(3-methyl-1H-pyrrolo[2,3-b]pyridin-5-yl)-8-(pyrrolidin-2-yl)-3,4-dihydroisoquinolin-2(1H)-yl) (2-methylpyridin-4-yl)methanone]",0.64 nM,318 nM
"CCNC(=O)N1CCc2cc(-c3cnc4[nH]cc(C)c4c3)cc([C@@H]3CCCN3)c2C1 [Compound Z217, (S)—N-ethyl-6-(3-methyl-1H-pyrrolo[2,3-b]pyridin-5-yl)-8-(pyrrolidin-2-yl)-3,4-dihydroisoquinoline-2(1H)-carboxamide]",0.44 nM,133 nM
"Cc1c[nH]c2ncc(-c3cc4c(c([C@@H]5CCCN5)c3)CN(C(=O)[C@@H]3CCOC3)CC4)cc12 [Compound Z219-1, (S)-(6-(3-methyl-1H-pyrrolo[2,3-b]pyridin-5-yl)-8-(pyrrolidin-2-yl)-3,4-dihydroisoquinolin-2(1H)-yl) ((R)-tetrahydrofuran-3-yl)methanone]",0.42 nM,174 nM
"Nc1ncc(-c2cc3c(c([C@@H]4CCCN4)c2)COCC3)cc1-c1nccs1 [Compound Z238, (S)-5-(8-(pyrrolidin-2-yl)isochroman-6-yl)-3-(thiazol-2-yl)pyridin-2-amine]",1.48 nM,354 nM
"Cc1c[nH]c2ncc(-c3cc4c(c([C@@H]5CCCN5)c3)CN(C(=O)Nc3cccnc3)C4)cc12 [Compound Z387, (S)-6-(3-methyl-1H-pyrrolo[2,3-b]pyridin-5-yl)-N-(pyridin-3-yl)-4-(pyrrolidin-2-yl)isoindoline-2-carboxamide]",3.8 nM,2400 nM
"Cc1c[nH]c2ncc(-c3cc4c(c([C@@H]5CCCN5)c3)CCN(C(=O)C(C)(C)C)C4)cc12 [Compound Z300, (S)-2,2-dimethyl-1-(7-(3-methyl-1H-pyrrolo[2,3-b]pyridin-5-yl)-5-(pyrrolidin-2-yl)-3,4-dihydroisoquinolin-2(1H)-yl)propan-1-one]",0.64 nM,274 nM
"Cc1c[nH]c2ncc(-c3cc4c(c([C@@H]5CCCN5)c3)CN(C(=O)c3ccncc3)CC4)cc12 [Compound Z124, (S)-(6-(3-methyl-1H-pyrrolo[2,3-b]pyridin-5-yl)-8-(pyrrolidin-2-yl)-3,4-dihydroisoquinolin-2(1H)-yl) (pyridin-4-yl)methanone]",0.33 nM,260 nM
"Cc1cc(C(=O)N2CCc3c(cc(-c4cnc5[nH]cc(C)c5c4)cc3[C@@H]3CCCN3)C2)cc(C)n1 [Compound Z279, (S)-(2,6-dimethylpyridin-4-yl)(7-(3-methyl-1H-pyrrolo[2,3-b]pyridin-5-yl)-5-(pyrrolidin-2-yl)-3,4-dihydroisoquinolin-2(1H)-yl)methanone]",0.44 nM,162 nM
"Cc1cc(N2CCc3cc(-c4cnc5[nH]cc(C)c5c4)cc([C@@H]4CCCN4)c3C2)cc(C)n1 [Compound Z343, (S)-2-(2,6-dimethylpyridin-4-yl)-6-(3-methyl-1H-pyrrolo[2,3-b]pyridin-5-yl)-8-(pyrrolidin-2-yl)-1,2,3,4-tetrahydroisoquinoline]",0.4 nM,177 nM
"N#CCc1c[nH]c2ncc(-c3cc4c(c([C@@H]5CCCN5)c3)COCC4)cc12 (single isomer, unassigned) [Compound Z101-2]",0.99 nM,111 nM
"Cc1c[nH]c2ncc(-c3cc4c(c(C5CC(=O)N5)c3)COCC4)cc12 (centres unmarked) [Compound Z231, 4-(6-(3-methyl-1H-pyrrolo[2,3-b]pyridin-5-yl)isochroman-8-yl)azetidin-2-one]",35.3 nM,> 10000 nM
"Cc1c[nH]c2ncc(-c3cc4c(c([C@@H]5CCCN5)c3)CN(C(=O)c3ccn(C)n3)CC4)cc12 [Compound Z223, (S)-(1-methyl-1H-pyrazol-3-yl)(6-(3-methyl-1H-pyrrolo[2,3-b]pyridin-5-yl)-8-(pyrrolidin-2-yl)-3,4-dihydroisoquinolin-2(1H)-yl)methanone]",1.6 nM,301 nM
"COCc1cc(N2CCc3cc(-c4cnc5[nH]cc(C)c5c4)cc([C@@H]4CCCN4)c3C2)ccn1 [Compound Z247, (S)-2-(2-(methoxymethyl)pyridin-4-yl)-6-(3-methyl-1H-pyrrolo[2,3-b]pyridin-5-yl)-8-(pyrrolidin-2-yl)-1,2,3,4-tetrahydroisoquinoline]",0.61 nM,151 nM
Cc1c[nH]c2ncc(-c3cc4c(c([C@@H]5CCCN5)c3)CN(C(=O)C3CCOC3)CC4)cc12 (some centres unmarked) [Compound Z219],0.66 nM,257 nM
"CC(C)c1c[nH]c2ncc(-c3cc([C@@H]4CCCN4)c4cnccc4c3)cc12 (single isomer, unassigned) [Compound Z95-2]",1.45 nM,623 nM
"COCC(=O)N1CCc2cc(-c3cnc4[nH]cc(C)c4c3)cc([C@@H]3CCCN3)c2C1 [Compound Z121, (S)-1-(6-(3-methyl-1H-pyrrolo[2,3-b]pyridin-5-yl)-8-(pyrrolidin-2-yl)-3,4-dihydroisoquinolin-2(1H)-yl)methoxyethyl ketone]",0.5 nM,185 nM
"Cc1c[nH]c2ncc(-c3cc4c(c([C@@H]5CCCN5)c3)CN(C(=O)N3CCO[C@@H](C)C3)CC4)cc12 [Compound Z359-1, (6-(3-methyl-1H-pyrrolo[2,3-b]pyridin-5-yl)-8-((S)-pyrrolidin-2-yl)-3,4-dihydroisoquinolin-2(1H)-yl) ((S)-2-methylmorpholin)methanone]",0.27 nM,135 nM
COCC(=O)N1CCc2cc(-c3cnc4[nH]cc(C(C)C)c4c3)cc([C@@H]3COCCN3)c2C1 [Compound Z424-1],0.31 nM,129 nM
"Cc1c[nH]c2ncc(-c3cc4c(c([C@@H]5CCCN5)c3)CN(C(=O)[C@@H](O)c3ccccc3)CC4)cc12 [Compound Z290, (S)-2-hydroxy-1-(6-(3-methyl-1H-pyrrolo[2,3-b]pyridin-5-yl)-8-((S)-pyrrolidin-2-yl)-3,4-dihydroisoquinolin-2(1H)-yl)-2-acetophenone]",0.77 nM,272 nM
"Cc1c[nH]c2ncc(-c3cc(C4CCCN4)c4cnccc4c3)cc12 (centres unmarked) [Compound Z3, 6-(3-methyl-1H-pyrrolo[2,3-b]pyridin-5-yl)-8-(pyrrolidin-2-yl)isoquinoline formate]",4.34 nM,853 nM
"Cc1c[nH]c2ncc(-c3cc4c(c([C@@H]5CCCN5)c3)CN(C(=O)c3ccnc(C(C)(C)O)c3)CC4)cc12 [Compound Z327, (S)-(2-(2-hydroxypropan-2-yl)pyridin-4-yl)(6-(3-methyl-1H-pyrrolo[2,3-b]pyridin-5-yl)-8-(pyrrolidin-2-yl)-3,4-dihydroisoquinolin-2(1H)-yl)methanone]",0.33 nM,150 nM
"CCN1Cc2c(cc(-c3cnc4[nH]cc(C)c4c3)cc2[C@@H]2CCCN2)CC1=O [Compound Z138, (S)-2-ethyl-6-(3-methyl-1H-pyrrolo[2,3-b]pyridin-5-yl)-8-(pyrrolidin-2-yl)-1,4-dihydroisoquinolin-3(2H)-one]",0.81 nM,132 nM
